Data: patent US10342697B2, “Systems and methods for delivering drugs to an eye” (Avedro, Inc., priority 2016, dated 2019)
Entries after “also recorded” stand apart in the source; their conditions may differ.

Assays:
epithelium = test: Corrosiveness/damage to the epithelium; conditions: compared with BAC
[1] = test system: pig eyes with intact epithelium; test: Relative fluorescence F/Fo of cross-linked corneal flaps, Polidocanol vs BAC riboflavin solutions (Study 4); conditions: 20 min soak, 30 mW/cm^2, FIGS. 7-15
Protocol: The epitheliums of eyes in Group A were removed with a dull blade after the eyes were soaked in one of the solutions and irradiated pan-corneally on air with a top hat beam (3% root mean square) for 4 minutes with 365-nm light source (UV LED NCSU033B[T]; Nichia Co., Tokushima, Japan) at a chosen irradiance of 30 mW/cm^2 which was measured with a power sensor (model PD-300-UV; Ophir, Inc., Jerusalem, Israel) at the corneal surface. Corneal flaps (approximately 200 μm thick) were excised from the eyes with aid of an Intralase femtosecond laser (Abbot Medical Optics, Santa Ana, Calif.). The average thickness of the corneal flaps was calculated as a difference between the measurements before and after the excision from the eyes with an ultrasonic Pachymeter (DGH Technology, Exton, Pa.). The flaps were washed with distilled water and dried in a vacuum until the weight change became less than 10% (Rotary vane vacuum pump RV3 A652-01-903, BOC Edwards, West Sussex, UK). […] Papain digests were diluted 0.5 times with 1×BBBS and fluorescence of the solutions was measured with excitation of 360 nm in a QM-40 Spectrofluorometer (Photon Technology Int., London, Ontario, Canada). The fluorescence of the papain buffer was taken into account by measuring fluorescence in the absence of tissue and subtracting this value from the fluorescence of the samples. […]

Polyoxyethylene (9) lauryl ether [Polidocanol]
corrosive and damaging to the epithelium (epithelium): less corrosive and damaging to the epithelium than BAC
enhancing permeability in the epithelium and generating cross-linking activity [1]: more effective than many other surfactants; also recorded: far more effective and efficient than BAC
